For one test, the system named is p-Smad2. Briefly: Smad2 phosphorylation assay in human cardiac fibroblasts. The format is cell-based. To be noted: HCFs; TGF-β1 2 ng/ml alone; 72 hours. The method, then: (§1) Cells were serum-starved in M199 medium for 24 hours prior sample collection. Cells were used between passages 1–4, while all experiments were performed four separate times in duplicate. Levels of p-Smad2 and p-Smad3 were detected using Sure-fire kits according to the manufacturer’s instructions (Perkin-Elmer, Australia).

In another test the test system is p-Smad3. As to the kind of experiment: Smad3 phosphorylation assay in human cardiac fibroblasts. It counts as cell-based. To be noted: HCFs; TGF-β1 2 ng/ml alone; 72 hours. The protocol:
as §1

Test [1] relates to ML290-mediated cAMP accumulation. Briefly: Effect of signalling pathway inhibitors on ML290-mediated cAMP accumulation in human primary vascular cells. To be noted: NF449 10 μM, NF023 10 μM, mSIRK 5 μM, gallein 50 μM, Wortmannin 100 nM, 30 min. The format is cell-based. The method, then:
(§2) cAMP and cGMP accumulation was determined as previously described, [16]. Briefly, HEK293 cells were plated in 96-well plates (5 × 10^4 cells/well) and human primary cells were plated into 24-well plates (1 × 10^5 cells/well) and grown overnight to achieve a confluent monolayer. Prior to stimulation, HEK cells were serum-starved in DMEM containing 0.5% FBS v/v and primary cells were serum-starved in M199 medium for 4–6 hours. […] Levels of cAMP and cGMP were detected according to the manufacturer’s instructions (Perkin-Elmer, Australia).

Test [2] deals with ML290-mediated cGMP accumulation. As to the kind of experiment: Effect of signalling pathway inhibitors on ML290-mediated cGMP accumulation in human primary vascular cells. It counts as cell-based. To be noted: NF449 10 μM, NF023 10 μM, mSIRK 5 μM, gallein 50 μM, Wortmannin 100 nM, 30 min. The method, then: as §2
Test [3] deals with RXFP1 stably expressed in HEK293 cells (HEK-RXFP1) (human) (UniProt Q9HBX9). Briefly: radioligand binding; kinetics on HEK-RXFP1 cells in 96-well plates, with ML290 (1 μM): association with 100 pM 125I-H2 relaxin over time; dissociation after 90 min equilibration, started with 200 nM unlabelled H2 relaxin.
Test [4] shares this target. As to the kind of experiment: radioligand binding; kinetics on HEK-RXFP1 cells in 96-well plates, without ML290: association with 100 pM 125I-H2 relaxin over time; dissociation after 90 min equilibration, started with 200 nM unlabelled H2 relaxin.
The target in test [5] is T1, RXFP1 stably expressed in HEK293 cells (HEK-RXFP1) (human, UniProt Q9HBX9 1-757).
T1 construct: relaxin family peptide receptor 1 (RXFP1), human, stably expressed on HEK293 cells; also called relaxin receptor RXFP1; human RXFP1; source: HEK293 cells stably expressing RXFP1 (HEK-RXFP1), on intact cells
T1 sequence (looked up): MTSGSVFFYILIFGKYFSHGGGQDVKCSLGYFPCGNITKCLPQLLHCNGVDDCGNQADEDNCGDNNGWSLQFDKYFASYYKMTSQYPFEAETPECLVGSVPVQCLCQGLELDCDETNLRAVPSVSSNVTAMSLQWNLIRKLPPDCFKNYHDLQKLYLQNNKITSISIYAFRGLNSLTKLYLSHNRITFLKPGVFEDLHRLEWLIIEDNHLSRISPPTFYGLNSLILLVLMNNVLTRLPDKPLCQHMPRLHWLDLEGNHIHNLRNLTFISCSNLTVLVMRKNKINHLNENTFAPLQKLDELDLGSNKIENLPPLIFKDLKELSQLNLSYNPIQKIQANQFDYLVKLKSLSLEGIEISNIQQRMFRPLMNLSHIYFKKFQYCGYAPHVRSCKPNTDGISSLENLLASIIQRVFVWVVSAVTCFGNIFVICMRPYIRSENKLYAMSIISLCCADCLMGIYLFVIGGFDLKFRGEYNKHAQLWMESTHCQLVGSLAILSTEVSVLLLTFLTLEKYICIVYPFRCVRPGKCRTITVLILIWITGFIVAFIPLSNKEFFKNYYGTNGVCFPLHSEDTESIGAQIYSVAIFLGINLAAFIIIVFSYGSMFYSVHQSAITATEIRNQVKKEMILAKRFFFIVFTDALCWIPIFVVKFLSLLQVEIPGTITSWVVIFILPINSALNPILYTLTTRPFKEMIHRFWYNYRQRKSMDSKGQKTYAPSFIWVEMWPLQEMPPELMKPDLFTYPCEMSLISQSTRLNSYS
Briefly: radioligand binding; competition on HEK-RXFP1 cells: 100 pM 125I-H2 relaxin against increasing unlabelled H2 relaxin, vehicle (0.1% DMSO), 90 min, room temperature. To be noted: one partner purified.

For test [6], the target named is T1, RXFP1 stably expressed in HEK293 cells …. Briefly: radioligand binding; competition on HEK-RXFP1 cells: 100 pM 125I-H2 relaxin against increasing unlabelled H2 relaxin, in the presence of ML290 (1 μM), 90 min, room temperature. To be noted: one partner purified.
The target is the same in test [7]. Briefly: cell-based or functional assay.

Results on 7 molecules are retold here after PMC5462828 (Scientific Reports, 2017).

With “TGF-β1: pro-fibrotic cytokine used to induce Smad2 and Smad3 phosphorylation”, the “increase in p-Smad2 compared to vehicle-treated samples” value with p-Smad2 amounted to 2.21 ± 0.17 fold. Also, the “increase in p-Smad3 compared to vehicle-treated samples” value with p-Smad3 is reported as 1.41 ± 0.07 fold.

Take `O=C(Nc1cccc(C(=O)Nc2ccc(S(=O)(=O)O)c3cc(S(=O)(=O)O)cc(S(=O)(=O)O)c23)c1)Nc1cccc(C(=O)Nc2ccc(S(=O)(=O)O)c3cc(S(=O)(=O)O)cc(S(=O)(=O)O)c23)c1` [NF023]: the “ML290-mediated cAMP accumulation after inhibitor” value in [1] (HCAECs) is “unaffected”; in test [1] (HUASMCs, L9A 5 μM), “no effect”; in [1] (HUVECs), “unaffected”; in test [1] (HUVSMCs, L9A 5 μM) it was “no effect”. Also, the “ML290-mediated cGMP accumulation after inhibitor” value in test [2] (HCAECs) is reported as “not significantly affected”; in [2] (HUASMCs, L9A 5 μM), “no effect”; in [2] (HUVECs) it was “not significantly affected”; in test [2] (HUVSMCs, L9A 5 μM) it was “no effect”.

For the molecule `COC[C@H]1OC(=O)c2coc3c2[C@@]1(C)C1=C(C3=O)[C@@H]2CCC(=O)[C@@]2(C)C[C@H]1OC(C)=O` [Wortmannin], the “ML290-mediated cAMP accumulation after inhibitor” value is “unaffected” in [1] (HCAECs); 7.2 ± 2.2 % response to 50 μM forskolin in [1] (HUASMCs, L9A 5 μM); “unaffected” in test [1] (HUVECs); 6.4 ± 2.2 % response to 50 μM forskolin in test [1] (HUVSMCs, L9A 5 μM). The “ML290-mediated cGMP accumulation after inhibitor” value in test [2] (HCAECs) is reported as “not significantly affected”; in test [2] (HUASMCs, L9A 5 μM), 21.8 ± 3.4%; in test [2] (HUVECs), “not significantly affected”; in [2] (HUVSMCs, L9A 5 μM) it was 14.3 ± 3.3%.

Take `O=C1OC2(c3ccccc31)c1ccc(O)c(O)c1Oc1c2ccc(O)c1O` [gallein]: the “ML290-mediated cAMP accumulation after inhibitor” value in test [1] (HCAECs) is “unaffected”; in [1] (HUASMCs, L9A 5 μM), 5.2 ± 1.4 % response to 50 μM forskolin; in test [1] (HUVECs), “unaffected”; in test [1] (HUVSMCs, L9A 5 μM), 3.2 ± 3.4 % response to 50 μM forskolin. For the same molecule, the “ML290-mediated cGMP accumulation after inhibitor” value is “not significantly affected” in test [2] (HCAECs); 15.6 ± 2.6% in test [2] (HUASMCs, L9A 5 μM); “not significantly affected” in test [2] (HUVECs); 14.3 ± 3.8% in test [2] (HUVSMCs, L9A 5 μM).

Broadly, the koff is the first-order rate constant of dissociation. As a reminder, the kon is the second-order rate constant of association. Low values mean slower complex formation, high ones faster complex formation. In [3], 125I-H2 relaxin (ligand) registered a koff of 0.000667 s⁻¹ and a kon of 4.67e+06 M⁻¹ s⁻¹. In test [4], this molecule registered a koff of 0.000833 s⁻¹ and a kon of 3.5e+06 M⁻¹ s⁻¹.

`O=C(Nc1cc(C(=O)Nc2ccc(S(=O)(=O)O)cc2S(=O)(=O)O)cc(C(=O)Nc2ccc(S(=O)(=O)O)cc2S(=O)(=O)O)c1)Nc1cc(C(=O)Nc2ccc(S(=O)(=O)O)cc2S(=O)(=O)O)cc(C(=O)Nc2ccc(S(=O)(=O)O)cc2S(=O)(=O)O)c1` [NF449]: the “ML290-mediated cAMP accumulation after inhibitor” value in test [1] (HCAECs) is 0.8 ± 3.9 % response to 50 μM forskolin; in [1] (HUASMCs, L9A 5 μM) it was 6.0 ± 7.3 % response to 50 μM forskolin; in [1] (HUVECs), 0.8 ± 5.7 % response to 50 μM forskolin; in [1] (HUVSMCs, L9A 5 μM), 4.7 ± 2.5 % response to 50 μM forskolin. Further, the “ML290-mediated cGMP accumulation after inhibitor” value is 11.9 ± 5.3 % of the response to DEA in test [2] (HCAECs); 24.3 ± 5.7% in test [2] (HUASMCs, L9A 5 μM); 22.3 ± 3.0 % of the response to DEA in [2] (HUVECs); 18.8 ± 3.7% in test [2] (HUVSMCs, L9A 5 μM).

B1: Human gene 2 relaxin (H2 relaxin) (ligand)
chain 1: QLYSALANKCCHVGCTKRSLARFC
chain 2: DSWMEEVIKLCGRELVRAQIAICGMSTWS
The pKi is −log10 of the Ki, conventionally taken in molar units. In [5], B1 registered a pKi of 9.5. In test [6], the pKi was determined as 9.7. Further, in [7], the “cAMP accumulation in HCAEC (endogenous RXFP1), pEC50 (efficacy in brackets as % of forskolin 50 μM)” value was 8.9; the “cGMP accumulation in HCAEC (endogenous RXFP1), pEC50 (efficacy in brackets as % of DEA)” value turned out to be 9.2; the “cGMP accumulation in HCF (endogenous RXFP1), 40 min, pEC50 (efficacy in brackets as % of DEA)” value amounted to 9.6; the “p-ERK1/2 in HEK-RXFP1 cells, 5 min, pEC50 (efficacy in brackets as % of 10% FBS)” value stood at 9.5. For the same molecule, in test [7], the “p-p38MAPK in HEK-RXFP1 cells, 15 min, pEC50 (efficacy in brackets as % of sorbitol)” value worked out at 8.9.
